Drawing on article PMC6370762, “Endogenous pore-forming protein complex targets acidic glycosphingolipids in lipid rafts to initiate endolysosome regulation” (Communications Biology, 2019), this text covers Kd for nine substances.

The target of one experiment is BmTFF3 (Bombina maxima, UniProt B2BRT2). The following applies: PBS pH 7.4, 37 °C; 1:1 global fit; also bound on lipid overlay strips.
Sequence of BmTFF3 (B2BRT2 21-166 limits assumed): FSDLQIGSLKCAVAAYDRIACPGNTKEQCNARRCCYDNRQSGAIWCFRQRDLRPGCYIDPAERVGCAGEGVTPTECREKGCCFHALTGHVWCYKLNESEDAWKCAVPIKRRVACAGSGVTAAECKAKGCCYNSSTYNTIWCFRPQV
By Kd is commonly meant the free concentration of one partner at which half of the binding sites on the other are occupied at equilibrium, for simple one-to-one binding. A high value points to a looser complex. In turn, sulfatides yielded a Kd of around 62.3 nM.

For a further experiment, the target named is T1, βγ-CAT.
T1 construct: gene BmALP1
The following applies: PBS pH 7.4, 37 °C; 1:1 global fit; gangliosides bind the BmALP1 subunit.
For the substance GD1a, the Kd was determined as 76.3 nM.

GD1b gave a Kd of 521 nM.

With GD3, the affinity, expressed as Kd, was 46.7 nM. This Kd is about 11-fold lower than that of the substance before.

GM1: the Kd turned out to be 30.5 nM.

Regarding GM2, the Kd came to 53.7 nM.

For GM3, the Kd was found to be 10.2 nM. Compared with the last substance, the Kd is about 5.3-fold lower.

Substance GM4 had a Kd of 46.3 nM. This Kd is about 4.5-fold higher than that of the substance before.

Take GT1b: the affinity, expressed as Kd, was 527 nM.

The target of a further experiment is T1, βγ-CAT. The following applies: PBS pH 7.4, 37 °C; 1:1 global fit; site on BmTFF3 subunit.
sulfatides yielded a Kd of 65.5 nM.
